Results reported in patent publication US20140243334A1, “SUBSTITUTED HYDOXAMIC ACIDS AND USES THEREOF” (Millennium Pharmaceuticals, Inc., priority 2010, published 2014).

Target: T1, purified human HDAC6 (Homo sapiens, UniProt Q9UBN7)
T1 construct: purchased BPS Bioscience 5006
T1 sequence (Q9UBN7 1-1215): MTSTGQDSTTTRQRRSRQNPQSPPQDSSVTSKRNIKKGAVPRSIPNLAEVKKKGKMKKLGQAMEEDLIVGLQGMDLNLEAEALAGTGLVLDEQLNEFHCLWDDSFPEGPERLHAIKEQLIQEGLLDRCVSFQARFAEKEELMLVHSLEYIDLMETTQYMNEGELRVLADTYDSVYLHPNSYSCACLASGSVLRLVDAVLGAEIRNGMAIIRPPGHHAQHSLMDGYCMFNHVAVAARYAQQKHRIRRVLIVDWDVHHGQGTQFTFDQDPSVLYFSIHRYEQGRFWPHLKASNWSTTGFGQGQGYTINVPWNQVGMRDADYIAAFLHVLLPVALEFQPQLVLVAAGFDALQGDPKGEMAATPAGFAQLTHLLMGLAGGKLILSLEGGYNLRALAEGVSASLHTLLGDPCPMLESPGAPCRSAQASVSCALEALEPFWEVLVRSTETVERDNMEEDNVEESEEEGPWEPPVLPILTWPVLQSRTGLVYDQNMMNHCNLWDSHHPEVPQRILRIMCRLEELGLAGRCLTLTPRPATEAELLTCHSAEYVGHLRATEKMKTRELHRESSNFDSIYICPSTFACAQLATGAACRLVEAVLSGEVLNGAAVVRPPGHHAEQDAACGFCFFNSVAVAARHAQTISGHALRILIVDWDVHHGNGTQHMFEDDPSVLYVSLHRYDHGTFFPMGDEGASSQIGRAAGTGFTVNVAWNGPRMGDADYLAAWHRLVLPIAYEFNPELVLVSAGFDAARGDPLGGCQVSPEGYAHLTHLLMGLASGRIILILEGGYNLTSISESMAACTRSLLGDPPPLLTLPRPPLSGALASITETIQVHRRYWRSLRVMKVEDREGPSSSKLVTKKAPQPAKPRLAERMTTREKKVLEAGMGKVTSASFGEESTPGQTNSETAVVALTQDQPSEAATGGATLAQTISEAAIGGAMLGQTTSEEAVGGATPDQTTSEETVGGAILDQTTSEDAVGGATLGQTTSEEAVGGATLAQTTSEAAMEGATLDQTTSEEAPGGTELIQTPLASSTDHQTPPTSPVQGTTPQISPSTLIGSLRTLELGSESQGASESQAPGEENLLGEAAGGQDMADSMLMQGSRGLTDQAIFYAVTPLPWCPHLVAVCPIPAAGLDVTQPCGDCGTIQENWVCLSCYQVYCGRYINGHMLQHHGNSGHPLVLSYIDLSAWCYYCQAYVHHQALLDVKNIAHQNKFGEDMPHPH
Assay: HDAC6 Enzyme Assay
Format: biochemical
Conditions: HDAC6 inhibition at a compound concentration of 0.412 μM; read-out: Percent Inhibition at 0.412 μM
Protocol: To measure the inhibition of HDAC6 activity, purified human HDAC6 (BPS Bioscience; Cat. No. 5006) is incubated with substrate Ac-Arg-Gly-Lys(Ac)-AMC peptide (Bachem Biosciences; Cat. No. I-1925) for 1 hour at 30° C. in the presence of test compounds or vehicle DMSO control. The reaction is stopped with the HDAC inhibitor trichostatin A (Sigma; Cat. No. T8552) and the amount of Arg-Gly-Lys-AMC generated is quantitated by digestion with trypsin (Sigma; Cat. No. T1426) and subsequent measurement of the amount of AMC released using a fluorescent plate reader (Pherastar; BMG Technologies) set at Ex 340 nm and Em 460 nm. Concentration response curves are generated by calculating the fluorescence increase in test compound-treated samples relative to DMSO-treated controls, and enzyme inhibition (IC50) values are determined from those curves.

| SMILES | inhibition at 0.412 µM [%] |
| --- | --- |
| CN(C)CCOc1cccc(-c2ccc3c(c2)CC(C(=O)NO)CC3)c1 (stereo not shown) [Compound I-58, 7-{3-[2-(dimethylamino)ethoxy]phenyl}-N-hydroxy-1,2,3,4-tetrahydronaphthalene-2-carboxamide] | 87 |
| CC(C)(C)OC(=O)Nc1cccc(-c2ccc3c(c2)CC(C(=O)NO)CC3)c1 (stereo not shown) [Compound I-62, tert-butyl (3-{7-[(hydroxyamino)carbonyl]-5,6,7,8-tetrahydronaphthalen-2-yl}phenyl)carbamate] | 82 |
| CC(C)(C)OC(=O)Nc1ccc2c(c1)CC(C(=O)NO)CC2 (stereo not shown) [Compound I-20, tert-butyl {7-[(hydroxyamino)carbonyl]-5,6,7,8-tetrahydronaphthalen-2-yl}carbamate] | 61 |
| O=C(NO)C1CCc2cc(Nc3ccc(Cl)cc3)ccc2C1 (stereo not shown) [Compound I-78, 6-[(4-chlorophenyl)amino]-N-hydroxy-1,2,3,4-tetrahydronaphthalene-2-carboxamide] | 48 |
| O=C(NO)C1CCc2ccc(OCc3ccccc3)cc2C1 (stereo not shown) [Compound I-6, 7-(benzyloxy)-N-hydroxy-1,2,3,4-tetrahydronaphthalene-2-carboxamide] | 53 |
| CN(C)CCOc1ccc2c(c1)CC(C(=O)NO)CC2 (stereo not shown) [Compound I-44, 7-[2-(dimethylamino)ethoxy]-N-hydroxy-1,2,3,4-tetrahydronaphthalene-2-carboxamide] | 34 |
| COc1ccc(-c2ccc3c(c2)CC(C(=O)NO)CC3)cc1 (stereo not shown) [Compound I-69, N-hydroxy-7-(4-methoxyphenyl)-1,2,3,4-tetrahydronaphthalene-2-carboxamide] | 79 |
| CC(=O)Nc1cccc(-c2ccc3c(c2)CCC(C(=O)NO)C3)c1 (stereo not shown) [Compound I-74, 6-[3-(acetylamino)phenyl]-N-hydroxy-1,2,3,4-tetrahydronaphthalene-2-carboxamide] | 85 |
| Cc1cc(F)ccc1-c1ccc2c(c1)CC(C(=O)NO)CC2 (stereo not shown) [Compound I-102, 7-(4-fluoro-2-methylphenyl)-N-hydroxy-1,2,3,4-tetrahydronaphthalene-2-carboxamide] | 76 |
| O=C(NO)C1CCc2ccc(-c3ccc(C(=O)N4CCCC4)c(F)c3)cc2C1 (stereo not shown) [Compound I-118, 7-[3-fluoro-4-(pyrrolidin-1-ylcarbonyl)phenyl]-N-hydroxy-1,2,3,4-tetrahydronaphthalene-2-carboxamide] | 77 |
| O=C(Nc1cc(Oc2ccc3c(c2)C[C@@H](C(=O)NO)CC3)ccn1)C1CC1 [Compound I-2, (2S)-7-({2-[(cyclopropylcarbonyl)amino]pyridin-4-yl}oxy)-N-hydroxy-1,2,3,4-tetrahydronaphthalene-2-carboxamide] | 90 |
| O=C(NO)C1CCc2ccccc2C1 (stereo not shown) [Compound I-3, N-hydroxy-1,2,3,4-tetrahydronaphthalene-2-carboxamide] | 33 |
| O=C(NO)C1CCc2ccc(-c3ccc(N4CCOCC4)nc3)cc2C1 (stereo not shown) [Compound I-99, N-hydroxy-7-(6-morpholin-4-ylpyridin-3-yl)-1,2,3,4-tetrahydronaphthalene-2-carboxamide] | 82 |
| O=C(NO)C1CCc2cc(Nc3ccccc3Cl)ccc2C1 (stereo not shown) [Compound I-83, 6-[(2-chlorophenyl)amino]-N-hydroxy-1,2,3,4-tetrahydronaphthalene-2-carboxamide] | 37 |
| O=C1CCc2c(Oc3ccc4c(c3)CCC(C(=O)NO)C4)ccnc2N1 (stereo not shown) [Compound I-14, N-hydroxy-6-[(7-oxo-5,6,7,8-tetrahydro-1,8-naphthyridin-4-yl)oxy]-1,2,3,4-tetrahydronaphthalene-2-carboxamide] | 67 |
| O=C(NO)C1CCc2ccc(Oc3ccc(NC(=O)C4CC4)cc3)cc2C1 (stereo not shown) [Compound I-56, 7-{4-[(cyclopropylcarbonyl)amino]phenoxy}-N-hydroxy-1,2,3,4-tetrahydronaphthalene-2-carboxamide] | 82 |

| SMILES | inhibition at 0.412 µM [%] |
| --- | --- |
| O=C(NO)C1CCc2cc(-c3ccc(Cl)cc3)ccc2C1 (stereo not shown) [Compound I-65, 6-(4-chlorophenyl)-N-hydroxy-1,2,3,4-tetrahydronaphthalene-2-carboxamide] | 68 |
| O=C(NO)C1CCc2ccc(-c3cccc([N+](=O)[O-])c3)cc2C1 (stereo not shown) [Compound I-106, N-hydroxy-7-(3-nitrophenyl)-1,2,3,4-tetrahydronaphthalene-2-carboxamide] | 83 |
| O=C(NO)C1CCc2ccc(-c3ccc(F)c(Cl)c3)cc2C1 (stereo not shown) [Compound I-119, 7-(3-chloro-4-fluorophenyl)-N-hydroxy-1,2,3,4-tetrahydronaphthalene-2-carboxamide] | 69 |
| O=C(NO)C1CCc2ccc(Oc3ccncc3)cc2C1 (stereo not shown) [Compound I-12, N-hydroxy-7-(pyridin-4-yloxy)-1,2,3,4-tetrahydronaphthalene-2-carboxamide] | 61 |
| O=C(NC1CC1)c1cccc(-c2ccc3c(c2)CC(C(=O)NO)CC3)c1 (stereo not shown) [Compound I-51, 7-{3-[(cyclopropylamino)carbonyl]phenyl}-N-hydroxy-1,2,3,4-tetrahydronaphthalene-2-carboxamide] | 88 |
| CC(C)Oc1ncccc1-c1ccc2c(c1)CC(C(=O)NO)CC2 (stereo not shown) [Compound I-116, N-hydroxy-7-(2-isopropoxypyridin-3-yl)-1,2,3,4-tetrahydronaphthalene-2-carboxamide] | 82 |
| O=C(NO)C1CCc2ccc(-c3ccoc3)cc2C1 (stereo not shown) [Compound I-103, 7-(3-furyl)-N-hydroxy-1,2,3,4-tetrahydronaphthalene-2-carboxamide] | 72 |
| COc1cccc2c1CC(C(=O)NO)CC2 (stereo not shown) [Compound I-15, N-hydroxy-8-methoxy-1,2,3,4-tetrahydronaphthalene-2-carboxamide] | 25 |
| COc1ccccc1Nc1ccc2c(c1)CCC(C(=O)NO)C2 (stereo not shown) [Compound I-84, N-hydroxy-6-[(2-methoxyphenyl)amino]-1,2,3,4-tetrahydronaphthalene-2-carboxamide] | 38 |
| CN(C)Cc1cc(C(=O)Nc2ccc3c(c2)CC(C(=O)NO)CC3)cc(C(F)(F)F)c1 (stereo not shown) [Compound I-37, 7-{[3-[(dimethylamino)methyl]-5-(trifluoromethyl)benzoyl]amino}-N-hydroxy-1,2,3,4-tetrahydronaphthalene-2-carboxamide] | 55 |
| N#Cc1cc(-c2ccc3c(c2)CC(C(=O)NO)CC3)ccc1F (stereo not shown) [Compound I-105, 7-(3-cyano-4-fluorophenyl)-N-hydroxy-1,2,3,4-tetrahydronaphthalene-2-carboxamide] | 61 |
| O=C(NO)C1CCc2ccc(Nc3ccncc3)cc2C1 (stereo not shown) [Compound I-33, N-hydroxy-7-(pyridin-4-ylamino)-1,2,3,4-tetrahydronaphthalene-2-carboxamide] | 57 |
| CC(C)(C)OC(=O)Nc1cccc(Oc2ccc3c(c2)CC(C(=O)NO)CC3)c1 (stereo not shown) [Compound I-53, tert-Butyl [3-({7-[(hydroxyamino)carbonyl]-5,6,7,8-tetrahydronaphthalen-2-yl}oxy)phenyl]carbamate] | 83 |
| COc1cccc(Nc2ccc3c(c2)CCC(C(=O)NO)C3)c1 (stereo not shown) [Compound I-79, N-hydroxy-6-[(3-methoxyphenyl)amino]-1,2,3,4-tetrahydronaphthalene-2-carboxamide] | 43 |
| CC1(C(=O)Nc2ccc3c(c2)CCC(C(=O)NO)C3)CCNCC1 (stereo not shown) [Compound I-85, N-{6-[(hydroxyamino)carbonyl]-5,6,7,8-tetrahydronaphthalen-2-yl}-4-methylpiperidine-4-carboxamide] | 74 |
